Measured values reported in US20120245137A1 (Zalicus Pharmaceuticals Ltd., priority 2009, published 2012).

Experiments:
[1] = target: human α1G T-type channels (Homo sapiens, UniProt O43497); assay: T-type calcium channel block, whole cell patch clamp, α1G; type: cell-based; settings: HEK cells stably expressing human α1G; mainly non-inactivated protocol; values above 10,000 nM represented as 10000
How it was run: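 Using standard patch-clamp, T-type currents were recorded from stably transfected human α1G or α1H HEK 293 cells. Separate non-inactivating and inactivation voltage protocols distinguished resting from voltage-dependent block by locally applied compound in 0.1-0.01% DMSO.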

[2] = target: human α1H T-type channels (Homo sapiens, UniProt O95180); assay: T-type calcium channel block, whole cell patch clamp, α1H; type: cell-based; settings: HEK cells stably expressing human α1H; mainly non-inactivated protocol; values above 10,000 nM represented as 10000
Protocol: T-type calcium channel blocking activity was assayed in human embryonic kidneycells, HEK 293 (Invitrogen), stably transfected with the T-type calcium channel subunits. Briefly, cells were cultured in Dulbecco's modified eagle medium (DMEM) supplemented with 10% fetal bovine serum, 200 U/ml penicillin, and 0.2 mg/mL streptomycin at 37° C. with 5% CO2. At 85% confluency, cells were split with 0.25% trypsin/1 mM EDTA and plated at 10% confluency on glass coverslips. At 12 hours, the medium was replaced, and the cells stably transfected using a standard calcium phosphate protocol and the appropriate calcium channel cDNA's. Fresh DMEM was supplied, and the cells transferred to 28° C./5% CO2.
Standard patch-clamp techniques were employed to identify blockers of T-type currents. Briefly, previously described HEK cell lines stably expressing human α1G, α1H, and α1I T-type channels were used for all the recordings (passage #: 4-20, 37° C., 5% CO2). Whole cell patch clamp experiments were performed using an Axopatch 200B amplifier (Axon Instruments, Burlingame, Calif.) linked to a personal computer equipped with pCLAMP software. Data were analyzed using Clampfit (Axon Instruments) and SigmaPlot 4.0 (Jandel Scientific). To obtain T-type currents, plastic dishes containing semi-confluent cells were positioned on the stage of a ZEISS AXIOVERT S100 microscope after replacing the culture medium with external solution (Table 2). Whole-cell patches were obtained using pipettes (borosilicate glass with filament, O.D.: 1.5 mm, I.D.: 0.86 mm, 10 cm length), fabricated on a SUTTER P-97 puller with resistance values of ˜5 MΩ (Table 3).
T-type currents were reliably obtained by using two voltage protocols: • “non-inactivating,” and • “inactivation.”
Test compounds were dissolved in external solution, 0.1-0.01% DMSO. After ˜10 minutes rest, they were applied by gravity close to the cell using a WPI microfil tubing. The “non-inactivated” pre-pulse was used to examine the resting block of a compound. The “inactivated” protocol was employed to study voltage-dependent block.

human α1G T-type channels, sequence (O43497 whole entry): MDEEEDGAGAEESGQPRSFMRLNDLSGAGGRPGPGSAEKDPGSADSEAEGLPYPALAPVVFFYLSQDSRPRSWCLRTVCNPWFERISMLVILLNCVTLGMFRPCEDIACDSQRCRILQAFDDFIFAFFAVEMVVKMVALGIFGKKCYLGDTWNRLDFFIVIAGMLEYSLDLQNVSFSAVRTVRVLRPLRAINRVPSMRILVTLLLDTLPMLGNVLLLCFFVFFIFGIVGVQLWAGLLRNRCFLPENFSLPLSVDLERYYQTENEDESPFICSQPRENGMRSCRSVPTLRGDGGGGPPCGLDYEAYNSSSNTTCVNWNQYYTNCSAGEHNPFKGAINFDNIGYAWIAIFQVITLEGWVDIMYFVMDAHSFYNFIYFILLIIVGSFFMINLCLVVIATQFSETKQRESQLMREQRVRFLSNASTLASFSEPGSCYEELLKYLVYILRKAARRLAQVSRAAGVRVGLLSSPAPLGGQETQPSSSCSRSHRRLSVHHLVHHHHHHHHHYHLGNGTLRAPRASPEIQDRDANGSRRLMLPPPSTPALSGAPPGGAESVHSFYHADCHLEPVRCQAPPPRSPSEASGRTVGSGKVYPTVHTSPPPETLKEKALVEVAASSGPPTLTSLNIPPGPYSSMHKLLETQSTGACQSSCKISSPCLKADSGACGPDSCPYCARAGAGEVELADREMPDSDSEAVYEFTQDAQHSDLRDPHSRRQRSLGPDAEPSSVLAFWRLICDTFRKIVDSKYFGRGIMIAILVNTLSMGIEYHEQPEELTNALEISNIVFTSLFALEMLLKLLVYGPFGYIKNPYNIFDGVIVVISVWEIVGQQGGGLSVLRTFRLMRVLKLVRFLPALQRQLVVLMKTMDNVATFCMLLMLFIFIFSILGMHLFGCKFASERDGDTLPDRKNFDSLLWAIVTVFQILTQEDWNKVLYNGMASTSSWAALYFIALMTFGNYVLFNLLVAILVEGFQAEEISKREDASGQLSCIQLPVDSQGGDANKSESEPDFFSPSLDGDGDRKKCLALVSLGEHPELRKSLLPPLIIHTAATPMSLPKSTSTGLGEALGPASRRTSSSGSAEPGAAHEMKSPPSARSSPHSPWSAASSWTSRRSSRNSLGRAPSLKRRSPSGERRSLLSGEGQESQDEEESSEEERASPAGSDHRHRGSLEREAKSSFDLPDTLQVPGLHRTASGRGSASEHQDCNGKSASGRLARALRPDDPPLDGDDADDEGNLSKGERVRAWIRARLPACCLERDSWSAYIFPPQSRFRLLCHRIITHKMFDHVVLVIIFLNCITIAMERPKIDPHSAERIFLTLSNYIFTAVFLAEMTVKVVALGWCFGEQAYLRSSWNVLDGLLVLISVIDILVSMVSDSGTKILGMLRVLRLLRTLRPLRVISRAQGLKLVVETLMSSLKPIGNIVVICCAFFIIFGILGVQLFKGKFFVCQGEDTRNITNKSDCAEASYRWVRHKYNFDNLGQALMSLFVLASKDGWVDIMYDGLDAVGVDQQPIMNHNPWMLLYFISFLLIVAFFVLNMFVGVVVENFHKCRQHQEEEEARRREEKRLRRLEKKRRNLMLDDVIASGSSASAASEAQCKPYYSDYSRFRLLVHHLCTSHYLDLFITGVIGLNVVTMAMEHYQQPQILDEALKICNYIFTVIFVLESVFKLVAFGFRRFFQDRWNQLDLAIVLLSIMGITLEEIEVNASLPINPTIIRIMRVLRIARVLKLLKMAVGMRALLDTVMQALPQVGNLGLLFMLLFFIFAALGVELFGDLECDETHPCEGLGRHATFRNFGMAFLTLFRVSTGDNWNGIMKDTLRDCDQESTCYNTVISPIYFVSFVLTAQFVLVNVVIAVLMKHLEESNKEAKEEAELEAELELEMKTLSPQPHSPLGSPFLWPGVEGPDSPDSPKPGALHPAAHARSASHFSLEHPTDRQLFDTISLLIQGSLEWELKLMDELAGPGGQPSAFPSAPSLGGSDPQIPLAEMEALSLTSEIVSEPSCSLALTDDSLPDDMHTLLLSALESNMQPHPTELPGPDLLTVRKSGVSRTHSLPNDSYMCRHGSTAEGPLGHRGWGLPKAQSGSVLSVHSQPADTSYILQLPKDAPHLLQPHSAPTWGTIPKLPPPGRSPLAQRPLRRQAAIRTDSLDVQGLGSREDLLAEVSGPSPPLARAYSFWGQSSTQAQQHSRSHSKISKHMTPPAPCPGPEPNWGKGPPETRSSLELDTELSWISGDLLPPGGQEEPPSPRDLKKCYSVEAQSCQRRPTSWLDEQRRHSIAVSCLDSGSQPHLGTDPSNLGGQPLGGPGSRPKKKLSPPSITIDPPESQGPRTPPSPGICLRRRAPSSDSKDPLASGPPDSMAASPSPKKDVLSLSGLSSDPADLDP
human α1H T-type channels, sequence (O95180 whole entry): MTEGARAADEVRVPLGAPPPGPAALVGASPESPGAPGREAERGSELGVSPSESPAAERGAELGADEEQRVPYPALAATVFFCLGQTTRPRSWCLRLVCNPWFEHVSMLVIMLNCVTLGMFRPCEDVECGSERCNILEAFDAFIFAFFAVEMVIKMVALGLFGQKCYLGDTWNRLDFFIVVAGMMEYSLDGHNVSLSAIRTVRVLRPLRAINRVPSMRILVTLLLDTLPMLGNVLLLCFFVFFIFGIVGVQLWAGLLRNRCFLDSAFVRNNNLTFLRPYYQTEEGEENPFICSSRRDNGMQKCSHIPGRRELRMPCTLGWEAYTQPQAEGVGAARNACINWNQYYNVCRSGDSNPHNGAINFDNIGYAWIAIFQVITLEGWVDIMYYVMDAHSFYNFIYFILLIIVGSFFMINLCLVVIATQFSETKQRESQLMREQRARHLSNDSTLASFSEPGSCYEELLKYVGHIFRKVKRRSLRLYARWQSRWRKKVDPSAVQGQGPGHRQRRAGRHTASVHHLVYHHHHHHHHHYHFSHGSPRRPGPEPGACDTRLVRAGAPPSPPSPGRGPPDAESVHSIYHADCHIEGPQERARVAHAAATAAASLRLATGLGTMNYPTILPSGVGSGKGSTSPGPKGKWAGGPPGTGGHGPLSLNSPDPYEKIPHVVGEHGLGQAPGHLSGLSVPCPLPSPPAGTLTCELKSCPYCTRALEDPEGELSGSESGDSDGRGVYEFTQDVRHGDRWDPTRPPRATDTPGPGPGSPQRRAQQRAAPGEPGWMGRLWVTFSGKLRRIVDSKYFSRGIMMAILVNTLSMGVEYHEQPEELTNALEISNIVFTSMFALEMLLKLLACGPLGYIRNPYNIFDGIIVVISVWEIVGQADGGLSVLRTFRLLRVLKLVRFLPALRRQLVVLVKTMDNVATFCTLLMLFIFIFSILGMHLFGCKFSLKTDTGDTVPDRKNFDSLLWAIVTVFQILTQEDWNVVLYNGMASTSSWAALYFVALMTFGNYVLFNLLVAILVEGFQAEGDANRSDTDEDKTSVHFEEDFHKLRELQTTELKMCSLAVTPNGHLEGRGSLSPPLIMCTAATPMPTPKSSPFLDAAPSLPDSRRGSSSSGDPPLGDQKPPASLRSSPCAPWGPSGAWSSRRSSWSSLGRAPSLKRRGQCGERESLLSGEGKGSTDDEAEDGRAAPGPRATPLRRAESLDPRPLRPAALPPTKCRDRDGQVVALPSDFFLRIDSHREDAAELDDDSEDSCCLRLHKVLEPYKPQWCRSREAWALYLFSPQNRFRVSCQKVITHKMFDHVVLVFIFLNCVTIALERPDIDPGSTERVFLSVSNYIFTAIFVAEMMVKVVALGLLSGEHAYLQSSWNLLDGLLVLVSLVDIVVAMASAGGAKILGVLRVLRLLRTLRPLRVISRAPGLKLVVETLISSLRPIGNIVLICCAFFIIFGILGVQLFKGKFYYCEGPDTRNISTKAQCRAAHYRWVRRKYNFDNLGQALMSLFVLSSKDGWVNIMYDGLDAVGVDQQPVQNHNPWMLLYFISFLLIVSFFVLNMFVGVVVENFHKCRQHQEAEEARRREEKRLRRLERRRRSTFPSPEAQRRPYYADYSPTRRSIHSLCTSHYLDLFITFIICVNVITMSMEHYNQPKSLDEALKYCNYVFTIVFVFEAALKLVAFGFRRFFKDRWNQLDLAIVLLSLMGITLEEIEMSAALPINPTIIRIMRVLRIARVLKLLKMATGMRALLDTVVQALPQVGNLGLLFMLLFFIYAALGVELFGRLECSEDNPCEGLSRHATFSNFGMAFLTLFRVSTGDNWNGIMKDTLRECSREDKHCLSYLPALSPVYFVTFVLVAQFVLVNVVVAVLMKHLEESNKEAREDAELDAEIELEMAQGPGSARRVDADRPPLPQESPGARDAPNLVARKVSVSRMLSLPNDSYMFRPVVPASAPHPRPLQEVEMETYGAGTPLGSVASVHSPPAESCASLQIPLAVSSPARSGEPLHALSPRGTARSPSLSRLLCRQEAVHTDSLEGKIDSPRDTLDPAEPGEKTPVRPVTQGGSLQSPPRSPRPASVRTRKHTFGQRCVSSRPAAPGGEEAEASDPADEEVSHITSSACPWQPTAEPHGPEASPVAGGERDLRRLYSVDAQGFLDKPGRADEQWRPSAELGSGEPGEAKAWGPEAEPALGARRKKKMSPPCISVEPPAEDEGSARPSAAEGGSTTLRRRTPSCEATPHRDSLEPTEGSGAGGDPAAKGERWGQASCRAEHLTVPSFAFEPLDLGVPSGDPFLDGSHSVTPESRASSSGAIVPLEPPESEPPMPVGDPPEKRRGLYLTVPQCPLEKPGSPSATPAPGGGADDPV

Structure (SMILES) | IC50 [1] | IC50 [2]
Cc1cc(C(=O)N[C@H]2CC[C@H](CS(=O)(=O)c3cccc(C(F)(F)F)c3)CC2)c(C(F)(F)F)o1 [Compound 172, 5-methyl-2-(trifluoromethyl)-N-((1R,4R)-4-((3-(trifluoromethyl)phenylsulfonyl)methyl)cyclohexyl)furan-3-carboxamide] | > 10000 nM | 6.73 µM
CS(=O)(=O)c1nc(C(F)(F)F)ccc1C(=O)N[C@H]1CC[C@@](F)(S(=O)(=O)c2cccc(OC(F)(F)F)c2)CC1 [Compound 258, N-((1S,4S)-4-fluoro-4-(3-(trifluoromethoxy)phenylsulfonyl)cyclohexyl)-2-(methylsulfonyl)-6-(trifluoromethyl)nicotinamide] | 7340 nM | > 10 µM
CC(C)(C(=O)Nc1nc2ccc(Cl)cc2s1)S(=O)(=O)c1cccc(C(F)(F)F)c1 [Compound 449, N-(6-chlorobenzo[d]thiazol-2-yl)-2-methyl-2-(3-(trifluoromethyl)phenylsulfonyl)propanamide] | 450 nM | 0.55 µM
CC(C)(C(=O)NCCc1ccc(Cl)c(Cl)c1)S(=O)(=O)c1cccc(C(F)(F)F)c1 [Compound 451, N-(3,4-dichlorophenethyl)-2-methyl-2-(3-(trifluoromethyl)phenylsulfonyl)propanamide] | 260 nM | 2.41 µM
CN(CCc1ccc(F)cc1)C(=O)C(C)(C)S(=O)(=O)c1cccc(C(F)(F)F)c1 [Compound 452, N-(4-fluorophenethyl)-N,2-dimethyl-2-(3-(trifluoromethyl)phenylsulfonyl)propanamide] | 570 nM | 9.81 µM
CN(CCc1ccc(Cl)c(Cl)c1)C(=O)C(C)(C)S(=O)(=O)c1cccc(C(F)(F)F)c1 [Compound 453, N-(3,4-dichlorophenethyl)-N,2-dimethyl-2-(3-(trifluoromethyl)phenylsulfonyl)propanamide] | 690 nM | 3.93 µM
CN(Cc1ccc(F)c(C(F)(F)F)c1)C(=O)C(C)(C)S(=O)(=O)c1cccc(C(F)(F)F)c1 [Compound 454, N-(4-fluoro-3-(trifluoromethyl)benzyl)-N,2-dimethyl-2-(3-(trifluoromethyl)phenylsulfonyl)propanamide] | 610 nM | 3.48 µM
CC(C)(CNC(=O)c1cc(F)cc(Cl)c1)S(=O)(=O)c1cccc(C(F)(F)F)c1 [Compound 455, 3-chloro-5-fluoro-N-(2-methyl-2-(3-(trifluoromethyl)phenylsulfonyl)propyl)benzamide] | 400 nM | 2.5 µM
CC(C)(CNC(=O)c1ccc(F)c(C(F)(F)F)c1)S(=O)(=O)c1cccc(C(F)(F)F)c1 [Compound 456, 4-fluoro-N-(2-methyl-2-(3-(trifluoromethyl)phenylsulfonyl)propyl)-3-(trifluoromethyl)benzamide] | 710 nM | 0.91 µM
CC(C)(CNC(=O)c1nc2cc(C(F)(F)F)ccc2[nH]1)S(=O)(=O)c1cccc(C(F)(F)F)c1 [Compound 457, N-(2-methyl-2-(3-(trifluoromethyl)phenylsulfonyl)propyl)-5-(trifluoromethyl)-1H-benzo[d]imidazole-2-carboxamide] | 560 nM | 1.2 µM
CC(C)(C(=O)Nc1nc2cc(C(F)(F)F)ccc2[nH]1)S(=O)(=O)c1cccc(C(F)(F)F)c1 [Compound 458, 2-methyl-N-(5-(trifluoromethyl)-1H-benzo[d]imidazol-2-yl)-2-(3-(trifluoromethyl)phenylsulfonyl)propanamide] | 900 nM | 1.92 µM
CC1(NC(=O)CNCC(C)(C)S(=O)(=O)c2cccc(C(F)(F)F)c2)CCC1 [Compound 459, 2-(2-methyl-2-(3-(trifluoromethyl)phenylsulfonyl)propylamino)-N-(l-methylcyclobutyl)acetamide] | 820 nM | > 10 µM
CC(C)(CCS(=O)(=O)c1cccc(C(F)(F)F)c1)S(=O)(=O)c1cccc(C(F)(F)F)c1 [Compound 460] | 100 nM | > 10 µM
CC(C)(CCS(=O)(=O)c1cc(Cl)cc(Cl)c1)S(=O)(=O)c1cccc(C(F)(F)F)c1 [Compound 461, 1,3-dichloro-5-(3-methyl-3-(3-(trifluoromethyl)phenylsulfonyl)butylsulfonyl)benzene] | 190 nM | > 10 µM
CC(C)(CCS(=O)(=O)c1ccc(Cl)cc1)S(=O)(=O)c1cccc(C(F)(F)F)c1 [Compound 462, 1-(4-(4-chlorophenylsulfonyl)-2-methylbutan-2-ylsulfonyl)-3-(trifluoromethyl)benzene] | 560 nM | > 10 µM
CC(C)(CCS(=O)(=O)c1cccc(OC(F)(F)F)c1)S(=O)(=O)c1cccc(C(F)(F)F)c1 [Compound 463, 1-(3-methyl-3-(3-(trifluoromethyl)phenylsulfonyl)butylsulfonyl)-3-(trifluoromethoxy)benzene] | 350 nM | > 10 µM
COc1cc(F)cc(C(=O)NCCC(C)(C)S(=O)(=O)c2cccc(C(F)(F)F)c2)c1 [Compound 464, 3-fluoro-5-methoxy-N-(3-methyl-3-(3-(trifluoromethyl)phenylsulfonyl)butyl) benzamide] | 60 nM | 2.14 µM
CC(C)(CCNC(=O)c1cc(F)cc(Cl)c1)S(=O)(=O)c1cccc(C(F)(F)F)c1 [Compound 465, 3-chloro-5-tluoro-N-(3-methyl-3-(3-(trifluoromethyl)phenylsulfonyl)butyl) benzamide] | 50 nM | 0.96 µM
Cn1nc(C(F)(F)F)cc1C(=O)NCCC(C)(C)S(=O)(=O)c1cccc(C(F)(F)F)c1 [Compound 467, 1-methyl-N-(3-methyl-3-(3-(trifluoromethyl)phenylsulfonyl)butyl)-3-(trifluoromethyl)-1H-pyrazole-5-carboxamide] | 170 nM | 1.17 µM
CC(C)(CCNC(=O)c1ccc(F)cc1)S(=O)(=O)c1cccc(C(F)(F)F)c1 [Compound 468, 4-fluoro-N-(3-methyl-3-(3-(trifluoromethyl)phenylsulfonyl)butyl) benzamide] | 350 nM | 4.86 µM
CC(C)(CCNC(=O)c1ccc(C(F)(F)F)cc1S(C)(=O)=O)S(=O)(=O)c1cccc(C(F)(F)F)c1 [Compound 469, N-(3-methyl-3-(3-(trifluoromethyl)phenylsulfonyl)butyl)-2-(methylsulfonyl)-4-(trifluoromethyl)benzamide] | 430 nM | 5.04 µM
CC(C)(CCNC(=O)c1ccc(C(F)(F)F)cn1)S(=O)(=O)c1cccc(C(F)(F)F)c1 [Compound 470, N-(3-methyl-3-(3-(trifluoromethyl)phenylsulfonyl)butyl)-5-(trifluoromethyl)picolinamide] | 130 nM | 5.84 µM
CC(C)(C)NC(=O)CNCCC(C)(C)S(=O)(=O)c1cccc(C(F)(F)F)c1 [Compound 471, N-tert-butyl-2-(3-methyl-3-(3-(trifluoromethyl)phenylsulfonyl)butylamino) acetamide] | 610 nM | > 10 µM
CC(C)(CCNCC(=O)NC1CCCCC1)S(=O)(=O)c1cccc(C(F)(F)F)c1 [Compound 472, N-cyclohexyl-2-(3-methyl-3-(3-(trifluoromethyl)phenylsulfonyl)butylamino) acetamide] | 620 nM | 3.47 µM
CN(C(=O)CNCCC(C)(C)S(=O)(=O)c1cccc(C(F)(F)F)c1)C(C)(C)C [Compound 473, N-tert-butyl-N-methyl-2-(3-methyl-3-(3-(trifluoromethyl)phenylsulfonyl)butylamino) acetamide] | 680 nM | 9.28 µM
CC(C)(CNC(=O)c1ccc(C(F)(F)F)cc1S(C)(=O)=O)S(=O)(=O)c1cccc(C(F)(F)F)c1 [Compound 474, N-(2-methyl-2-(3-(trifluoromethyl)phenylsulfonyl)propyl)-2-(methylsulfonyl)-4-(tritluoromethyl)benzamide] | 560 nM | > 10 µM
CC(C)(CNC(=O)c1cc(C(F)(F)F)ccn1)S(=O)(=O)c1cccc(C(F)(F)F)c1 [Compound 475, N-(2-methyl-2-(3-(trifluoromethyl)phenylsulfonyl)propyl)-4-(trifluoromethyl)picolinamide] | 480 nM | 6.97 µM
CC(C)(CNC(=O)c1ccc(C(F)(F)F)cn1)S(=O)(=O)c1cccc(C(F)(F)F)c1 [Compound 476, N-(2-methyl-2-(3-(trifluoromethyl)phenylsulfonyl)propyl)-5-(trifluoromethyl)picolinamide] | 400 nM | 5.62 µM
